Consider five compounds from PMC9457941, “Synthesis and Kinase Inhibitory Potencies of Pyrazolo[3,4-g]isoquinolines” (Molecules, 2022).

The target of one series is T1, CK1ε (Homo sapiens, UniProt P49674).
T1 construct: host or cells: Sf9 insect cells (baculovirus)
Briefly: ADP-Glo kinase inhibition assay, CK1ε. It is filed as biochemical. To be noted: 10 μM ATP, duplicate; for remaining activity at 1 µM: 1 μM compound, read-out: CK1 % residual activity at 1 μM; for remaining activity at 10 µM: 10 μM compound, read-out: CK1 % residual activity at 10 μM. On the procedure: (§1) Kinase enzymatic activities were assayed in 384 well plates using the ADP-GloTM assay kit (Promega, Madison, WI, USA) according to the manufacturer’s guidance. Briefly, the reactions were carried out in a final volume of 6 μL for 30 min at 30 °C in an appropriate kinase buffer (10 mM MgCl2, 1 mM EGTA, 1 mM DTT, 25 mM Tris-HCl pH 7.5, 50 μg/mL heparin), with either protein or peptide as substrate in the presence of 10 μM ATP (40 mM Tris pH 7.5, 20 mM MgCl2 and 0.1 mg/mL of BSA). Afterward, 6 μL of ADP-GloTM Kinase Reagent was added to stop the kinase reaction. After an incubation time of 50 min at room temperature (RT), 12 μL of Kinase Detection Reagent was added for 1 h at RT. The transmitted signal was measured using the Envision (Perkin Elmer, Waltham, MA, USA) microplate luminometer and expressed in relative light unit (RLU). In order to determine the half maximal inhibitory concentration (IC50), the assays were performed in duplicate in the absence or presence of increasing doses of the tested compounds. GraphPad Prism6 software (GraphPad Software, San Diego, CA, USA) was used to fit dose–response curves and to determine the IC50 values. Kinase activities are expressed in the percentage of maximal activity, i.e., measured in the absence of an inhibitor. Peptide substrates were obtained from Proteogenix (Schiltigheim, France).
(§2) The following protein kinases were analyzed in this study: CDK5/p25 (human, recombinant, expressed in bacteria) was assayed with 0.8 μg/μL of histone H1 as substrate; CDK9/CyclinT (human, recombinant, expressed by baculovirus in Sf9 insect cells) were assayed with 0.27 μg/μL of the following peptide: […], as substrate; CK1ε (human, recombinant, expressed by baculovirus in Sf9 insect cells) was assayed with 0.022 μg/μL of the following peptide: […]pAYSITA (“Sp” stands for phosphorylated serine) as CK1-specific substrate; GSK3β (human, recombinant, expressed by baculovirus in Sf9 insect cells) were assayed with 0.010 μg/μL of GS-1 peptide, a GSK-3-selective substrate ([…]pEDEEE); Haspin-kd (human, kinase domain, amino acids 470–798, recombinant, expressed in bacteria) was assayed with 0.007 μg/μL of histone H3 (1–21) peptide ([…]) as substrate; Pim-1 (human proto-oncogene, recombinant, expressed in bacteria) was assayed with 0.8 μg/μL of histone H1 as substrate; MmCLK1 (from Mus musculus, recombinant, expressed in bacteria) was assayed with 0.027 μg/μL of the following peptide: […] as substrate; RnDYRK1A-kd (Rattus norvegicus, amino acids 1–499 including the kinase domain, recombinant, expressed in bacteria, DNA vector kindly provided by Dr. W. Becker, Aachen, Germany) was assayed with 0.033 μg/μL of the following peptide: […] as substrate.

The next series addresses T2, CDK9/CyclinT (Homo sapiens, UniProt P50750).
T2 construct: host or cells: Sf9 insect cells (baculovirus)
In words: ADP-Glo kinase inhibition assay, CDK9/CyclinT. It is filed as biochemical. As to conditions: for IC50: 10 μM ATP, duplicate; for remaining activity at 1 µM: read-out: CDK9 % residual activity at 1 μM; for remaining activity at 10 µM: read-out: CDK9 % residual activity at 10 μM. On the procedure:
as §1, §2
A general note: ADP-Glo first removes unused ATP, then detects ADP through luciferase.

In the next series the target is T3, CDK5/p25 (Homo sapiens, UniProt Q00535).
T3 construct: host or cells: bacteria
T3 sequence (Q00535 whole entry): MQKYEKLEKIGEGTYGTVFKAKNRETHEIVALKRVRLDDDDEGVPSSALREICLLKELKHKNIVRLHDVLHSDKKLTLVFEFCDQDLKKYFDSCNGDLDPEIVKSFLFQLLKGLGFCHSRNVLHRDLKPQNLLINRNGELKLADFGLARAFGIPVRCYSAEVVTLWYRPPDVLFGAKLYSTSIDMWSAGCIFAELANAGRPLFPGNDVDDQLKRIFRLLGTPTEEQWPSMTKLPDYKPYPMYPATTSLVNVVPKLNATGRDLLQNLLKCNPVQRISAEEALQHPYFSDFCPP
T3 sequence (Q15078 99-307, further chain): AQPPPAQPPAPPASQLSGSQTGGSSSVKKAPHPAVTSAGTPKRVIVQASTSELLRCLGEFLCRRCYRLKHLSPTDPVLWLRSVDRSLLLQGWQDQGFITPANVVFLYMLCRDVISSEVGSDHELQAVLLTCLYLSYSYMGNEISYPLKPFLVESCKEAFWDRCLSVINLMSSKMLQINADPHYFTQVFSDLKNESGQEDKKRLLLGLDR
In words: ADP-Glo kinase inhibition assay, CDK5/p25. To be noted: for remaining activity at 1 µM: read-out: CDK5 % residual activity at 1 μM; for remaining activity at 10 µM: read-out: CDK5 % residual activity at 10 μM. It counts as biochemical. On the procedure: as §1, §2

The next series has as its target T4, RnDYRK1A-kd (Rattus norvegicus, UniProt Q63470).
T4 construct: RnDYRK1A-kd (Rattus norvegicus, amino acids 1–499 including the kinase domain, recombinant, expressed in bacteria); made in house; host or cells: bacteria
In words: ADP-Glo kinase inhibition assay, DYRK1A. It is filed as biochemical. As to conditions: for IC50: 10 μM ATP, duplicate, read-out: DYRK1A IC50; for remaining activity at 1 µM: read-out: DYRK1A % residual activity at 1 μM; for remaining activity at 10 µM: read-out: DYRK1A % residual activity at 10 μM. On the procedure:
as §1, §2

The target in a further series is T5, MmCLK1 (Mus musculus, UniProt P22518).
T5 construct: host or cells: bacteria
T5 sequence (P22518 whole entry): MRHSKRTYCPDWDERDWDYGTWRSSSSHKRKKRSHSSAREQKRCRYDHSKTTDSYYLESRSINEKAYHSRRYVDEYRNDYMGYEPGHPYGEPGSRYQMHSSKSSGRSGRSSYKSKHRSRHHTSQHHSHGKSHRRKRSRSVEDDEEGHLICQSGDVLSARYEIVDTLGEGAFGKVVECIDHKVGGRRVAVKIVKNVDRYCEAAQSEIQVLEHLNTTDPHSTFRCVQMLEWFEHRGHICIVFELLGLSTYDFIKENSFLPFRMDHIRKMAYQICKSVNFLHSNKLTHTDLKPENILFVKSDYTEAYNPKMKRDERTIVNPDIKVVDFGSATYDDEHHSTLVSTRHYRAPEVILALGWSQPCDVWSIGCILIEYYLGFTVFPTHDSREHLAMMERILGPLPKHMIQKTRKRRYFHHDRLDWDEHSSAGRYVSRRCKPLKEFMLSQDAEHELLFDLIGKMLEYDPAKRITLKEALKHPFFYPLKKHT
In words: ADP-Glo kinase inhibition assay, CLK1. It is filed as biochemical. To be noted: for IC50: 10 μM ATP, duplicate, read-out: CLK1 IC50; for remaining activity at 1 µM: read-out: CLK1 % residual activity at 1 μM; for remaining activity at 10 µM: read-out: CLK1 % residual activity at 10 μM. On the procedure:
as §1, §2

The next series has as its target T6, Pim-1 (Homo sapiens, UniProt P11309).
T6 construct: host or cells: bacteria
Briefly: ADP-Glo kinase inhibition assay, Pim-1. It is filed as biochemical. As to conditions: 10 μM ATP, duplicate; for remaining activity at 1 µM: 1 μM compound, read-out: PIM1 % residual activity at 1 μM; for remaining activity at 10 µM: 10 μM compound, read-out: PIM1 % residual activity at 10 μM. The protocol: as §1, §2

A further series has as its target T7, GSK3β (Homo sapiens, UniProt P49841).
T7 construct: host or cells: Sf9 insect cells (baculovirus)
In words: ADP-Glo kinase inhibition assay, GSK3β. It counts as biochemical. As to conditions: for remaining activity at 1 µM: read-out: GSK3 % residual activity at 1 μM; for remaining activity at 10 µM: read-out: GSK3 % residual activity at 10 μM; for IC50: 10 μM ATP, duplicate, read-out: GSK3 IC50. The protocol: as §1, §2

The target in series [1] is T8, Haspin-kd (human, kinase domain, amino acids 470–798) (Homo sapiens, UniProt Q8TF76).
T8 construct: Haspin-kd (human, kinase domain, amino acids 470–798, recombinant, expressed in bacteria); host or cells: bacteria
T8 sequence (Q8TF76 470-798): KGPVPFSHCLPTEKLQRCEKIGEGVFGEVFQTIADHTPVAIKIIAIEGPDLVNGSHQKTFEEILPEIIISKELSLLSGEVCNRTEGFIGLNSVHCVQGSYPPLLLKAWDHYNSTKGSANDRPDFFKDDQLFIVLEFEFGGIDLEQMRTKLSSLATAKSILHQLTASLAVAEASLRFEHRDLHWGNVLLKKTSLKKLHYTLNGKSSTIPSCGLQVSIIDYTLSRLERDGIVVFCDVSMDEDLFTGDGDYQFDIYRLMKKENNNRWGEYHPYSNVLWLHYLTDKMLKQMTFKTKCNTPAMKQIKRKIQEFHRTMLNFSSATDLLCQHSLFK
Briefly: ADP-Glo kinase inhibition assay, Haspin. As to conditions: for IC50: 10 μM ATP, duplicate; for remaining activity at 1 µM: read-out: Haspin % residual activity at 1 μM; for remaining activity at 10 µM: read-out: Haspin % residual activity at 10 μM. It is filed as biochemical. On the procedure: as §1

Another series concerns panel of 486 kinases. As to conditions: cited from earlier work.
Series [2] has as its system Haspin, CLK1, DYRK1A, CDK9/Cyclin T, GSK-3β, CK1ε, CDK5/p25 and Pim1. In words: Panel of eight protein kinases (ADP-Glo), statements across kinases. It counts as biochemical. As to conditions: 1 μM compound. On the procedure:
It should be noted that due to solubility issues, compound 1a could not be tested; only the corresponding methane sulfonate salt 1a’ was evaluated. The percentage of residual kinase activity was evaluated at 10 μM and 1 μM compound concentrations. […].
as §1, with “GraphPad Prism6 software (GraphPad Software, San Diego, CA, USA) was used to fit dose–response curves and to determine the IC50 values.” left out, “Peptide substrates were obtained from Proteogenix (Schiltigheim, France).” left out

SMILES strings stand for the structures.

T1 sequence (P49674 whole entry): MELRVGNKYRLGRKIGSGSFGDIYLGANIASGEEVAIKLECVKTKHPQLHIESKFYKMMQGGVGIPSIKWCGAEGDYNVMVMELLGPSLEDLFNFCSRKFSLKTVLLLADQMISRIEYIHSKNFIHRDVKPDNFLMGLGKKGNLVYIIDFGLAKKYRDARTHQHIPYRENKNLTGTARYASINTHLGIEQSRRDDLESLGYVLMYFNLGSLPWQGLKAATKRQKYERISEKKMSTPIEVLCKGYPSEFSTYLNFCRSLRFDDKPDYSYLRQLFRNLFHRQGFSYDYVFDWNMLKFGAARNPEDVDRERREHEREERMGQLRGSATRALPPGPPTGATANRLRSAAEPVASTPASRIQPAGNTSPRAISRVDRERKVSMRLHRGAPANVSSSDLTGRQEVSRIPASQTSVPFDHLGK
T6 sequence (P11309 whole entry): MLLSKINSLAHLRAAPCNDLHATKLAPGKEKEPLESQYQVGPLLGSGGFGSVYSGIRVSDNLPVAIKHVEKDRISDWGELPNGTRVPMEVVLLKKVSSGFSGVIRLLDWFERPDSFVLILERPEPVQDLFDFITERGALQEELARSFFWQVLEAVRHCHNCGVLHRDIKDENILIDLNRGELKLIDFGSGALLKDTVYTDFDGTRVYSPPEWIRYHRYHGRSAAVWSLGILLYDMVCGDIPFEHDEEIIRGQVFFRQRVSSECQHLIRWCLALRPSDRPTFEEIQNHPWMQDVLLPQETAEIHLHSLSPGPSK
T7 sequence (P49841 whole entry): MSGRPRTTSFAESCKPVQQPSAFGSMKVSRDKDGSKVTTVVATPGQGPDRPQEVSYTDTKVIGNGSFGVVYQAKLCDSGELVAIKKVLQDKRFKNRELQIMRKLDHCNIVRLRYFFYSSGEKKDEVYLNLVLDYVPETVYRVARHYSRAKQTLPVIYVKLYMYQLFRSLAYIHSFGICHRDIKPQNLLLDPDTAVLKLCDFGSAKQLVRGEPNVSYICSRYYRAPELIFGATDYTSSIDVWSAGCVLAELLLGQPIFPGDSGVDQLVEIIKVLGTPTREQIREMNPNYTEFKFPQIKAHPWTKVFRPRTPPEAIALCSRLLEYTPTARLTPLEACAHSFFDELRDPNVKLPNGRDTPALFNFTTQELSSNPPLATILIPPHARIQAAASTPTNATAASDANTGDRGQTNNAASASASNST
T2 sequence (O60563 whole entry): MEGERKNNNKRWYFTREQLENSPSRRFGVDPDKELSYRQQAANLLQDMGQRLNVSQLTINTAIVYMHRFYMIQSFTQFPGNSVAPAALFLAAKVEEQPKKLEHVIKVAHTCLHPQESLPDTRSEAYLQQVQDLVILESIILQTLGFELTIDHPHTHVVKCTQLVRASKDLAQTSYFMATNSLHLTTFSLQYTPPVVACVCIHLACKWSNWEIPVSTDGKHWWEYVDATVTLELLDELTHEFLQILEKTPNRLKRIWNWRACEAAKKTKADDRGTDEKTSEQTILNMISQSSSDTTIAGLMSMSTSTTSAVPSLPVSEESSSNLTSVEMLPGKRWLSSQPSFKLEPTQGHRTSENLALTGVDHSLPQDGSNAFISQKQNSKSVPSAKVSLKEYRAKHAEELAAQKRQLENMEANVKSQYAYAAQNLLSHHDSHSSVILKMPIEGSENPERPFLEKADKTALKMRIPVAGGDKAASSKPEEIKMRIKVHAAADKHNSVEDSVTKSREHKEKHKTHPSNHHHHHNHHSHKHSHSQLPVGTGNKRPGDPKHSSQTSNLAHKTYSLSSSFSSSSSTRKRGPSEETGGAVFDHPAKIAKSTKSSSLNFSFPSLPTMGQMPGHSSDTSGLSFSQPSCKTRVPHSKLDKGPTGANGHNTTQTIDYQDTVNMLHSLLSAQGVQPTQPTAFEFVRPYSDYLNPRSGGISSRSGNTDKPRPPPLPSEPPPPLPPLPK
T2 sequence (P50750 whole entry): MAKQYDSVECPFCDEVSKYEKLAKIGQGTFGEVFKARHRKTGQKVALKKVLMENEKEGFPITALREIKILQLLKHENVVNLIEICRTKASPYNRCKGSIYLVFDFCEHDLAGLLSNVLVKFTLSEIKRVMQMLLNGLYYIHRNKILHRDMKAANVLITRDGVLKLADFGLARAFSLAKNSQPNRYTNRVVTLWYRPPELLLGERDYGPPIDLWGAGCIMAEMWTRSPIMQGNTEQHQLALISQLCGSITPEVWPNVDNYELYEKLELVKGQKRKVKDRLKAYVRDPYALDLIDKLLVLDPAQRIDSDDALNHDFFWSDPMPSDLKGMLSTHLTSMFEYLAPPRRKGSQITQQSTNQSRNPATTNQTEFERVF

By IC50 is commonly meant the concentration needed to halve the response being measured. A word on the melting point: it is the temperature, or range, at which the solid turns liquid. With `Cn1ncc2cc3cnccc3c(N)c21` [Compound 2b, 1-Methyl-1H-pyrazolo[3,4-g]isoquinolin-9-amine], the melting point was in the range of 174 to 175 °C. Also, on CK1ε, the remaining activity at 1 µM is 77% and the remaining activity at 10 µM worked out at 42%. Also, on CDK9/CyclinT, the IC50 came out at 578 nM, the remaining activity at 1 µM was 39% and the remaining activity at 10 µM is 15%. Further, at CDK5/p25, the remaining activity at 1 µM amounted to 72% and the remaining activity at 10 µM stood at 60%. In addition, on RnDYRK1A-kd, the IC50 was found to be 273 nM, the remaining activity at 1 µM is 18% and the remaining activity at 10 µM was found to be 5%. In addition, at MmCLK1, the IC50 is 548 nM, the remaining activity at 1 µM is 36% and the remaining activity at 10 µM stood at 8%. On Pim-1, the remaining activity at 1 µM came out at 91% and the remaining activity at 10 µM was determined as 71%. For the same compound, at GSK3β, the remaining activity at 1 µM was determined as 68% and the remaining activity at 10 µM was determined as 44%. In series [1], the IC50 is 112 nM, the remaining activity at 1 µM came to 10% and the remaining activity at 10 µM was 14%. The “Selectivity Index (SI) Haspin vs. DYRK1A” value in [1] (Haspin vs. DYRK1A, which was more inhibited than CLK1) was 2.4.

As for `CCn1ncc2c(C3CC3)c3cnccc3c([N+](=O)[O-])c21` [Compound 3d, 4-Cyclopropyl-1-ethyl-9-nitro-1H-pyrazolo[3,4-g]isoquinoline], the melting point was found to be 97 °C. At CK1ε, the remaining activity at 1 µM was found to be 61% and the remaining activity at 10 µM came out at 15%. Moreover, at CDK9/CyclinT, half-maximal inhibition (IC50) was put at 266 nM, the remaining activity at 1 µM turned out to be 33% and the remaining activity at 10 µM was 11%. In addition, on CDK5/p25, the remaining activity at 1 µM came to 67% and the remaining activity at 10 µM came to 24%. Also, at RnDYRK1A-kd, the remaining activity at 1 µM worked out at 67% and the remaining activity at 10 µM stood at 29%. Moreover, at MmCLK1, the concentration for half-maximal inhibition (IC50) amounted to 229 nM, the remaining activity at 1 µM was 24% and the remaining activity at 10 µM amounted to 5%. For the same compound, on Pim-1, the remaining activity at 1 µM was determined as 99% and the remaining activity at 10 µM came out at 82%. On GSK3β, the IC50 is 226 nM, the remaining activity at 1 µM is 17% and the remaining activity at 10 µM came to 5%. For the same compound, in series [1], 312 nM corresponded to half-maximal inhibition (IC50), the remaining activity at 1 µM was determined as 21% and the remaining activity at 10 µM was 12%.

With `COc1ncc2cc3cnccc3c([N+](=O)[O-])c2n1` [I], in the series on panel of 486 kinases, the “kinases inhibited when tested on a large panel of 486 kinases” value was 12%.

In turn, `O=[N+]([O-])c1c2ccncc2cc2cn[nH]c12` showed a melting point of more than 250 °C.

For the compound `Nc1c2ccncc2cc2cn[nH]c12` [Compound 2a, 1-H-pyrazolo[3,4-g]isoquinolin-9-amine], the melting point is more than 250 °C. For the same compound, at CK1ε, the remaining activity at 1 µM was determined as 71% and the remaining activity at 10 µM came out at 28%. In addition, at CDK9/CyclinT, inhibition was half-maximal at 430 nM (IC50), the remaining activity at 1 µM amounted to 22% and the remaining activity at 10 µM turned out to be 10%. Besides, on CDK5/p25 (10 μM ATP, duplicate), the IC50 was found to be 927 nM. Moreover, at CDK5/p25, the remaining activity at 1 µM was 45% and the remaining activity at 10 µM was 17%. Besides, on RnDYRK1A-kd, the half-inhibitory concentration (IC50) amounted to 600 nM, the remaining activity at 1 µM was found to be 32% and the remaining activity at 10 µM is 12%. The “kinases inhibited to more than 50% at 1 μM” value in [2] is on record as “six out of eight”. Further, on MmCLK1, the IC50 came out at 296 nM, the remaining activity at 1 µM was determined as 20% and the remaining activity at 10 µM amounted to 8%. On Pim-1, the remaining activity at 1 µM came to 100% and the remaining activity at 10 µM is 90%. At GSK3β, the concentration for half-maximal inhibition (IC50) was found to be 411 nM, the remaining activity at 1 µM was 48% and the remaining activity at 10 µM amounted to 18%. Moreover, in [1], the IC50 is 127 nM, the remaining activity at 1 µM was found to be 13% and the remaining activity at 10 µM was 8%. Moreover, the “Selectivity Index (SI) Haspin vs. CLK1 = CLK1 IC50/Haspin IC50” value in [1] (Haspin vs. CLK1) was determined as 2.3.
